{"source": "paper PMC8207694", "about": "“Nucleoside transporter-guided cytarabine-conjugated liposomes for intracellular methotrexate delivery and cooperative choriocarcinoma therapy” (Journal of Nanobiotechnology, 2021)", "key": {"JEG-3 cells [1]": {"test_system": "JEG-3 cells", "experiment": "Specific uptake of cytarabine into the cells (LC/MS)", "assay_type": "cell-based, human", "settings": "Cy 5 μM, after 30 min and 1 h; compared with Pricell-0051, MCF-7, HepG2 cells; P < 0.05", "experimental": "JEG-3 cells, MCF-7 cells, or HepG2 cells were plated overnight in 6-well plates. Then, the adhered cells were treated with Cy (5 μM) for 30 min or 60 min. Then, cells were washed with PBS for moving the free drug in the medium. After that, the cells were lysed and treated with acetonitrile for precipitating protein. Finally, the content of Cy was detected by LC/MS (8050, SHIMADZU, Japan)."}, "JEG-3 cells [2]": {"test_system": "JEG-3 cells", "experiment": "Effect of endocytosis inhibitors on liposome uptake", "assay_type": "cell-based, human", "settings": "pre-treatment 30 min; chlorpromazine 50 μM, indomethacin 50 μM, colchicine 10 μM, quercetin 10 μM", "experimental": "Endocytosis was studied by adding JEG-3 cells to 6 well-plates and pre-treating them for 30 min with inhibitors of various endocytic pathways including the clathrin-dependent endocytosis inhibitor chlorpromazine (50 μM), the caveolin-dependent endocytosis inhibitor indomethacin (50 μM), the micropinocytosis inhibitor colchicine (10 μM), and quercetin (10 μM) as tools for inhibiting caveolae- or clathrin-independent endocytosis. Then, the medium was removed, and the fresh medium containing Dox-labeled liposomes was added to the plate. The cells were incubated for another 4 h. Subsequent steps were the same as those in uptake assay."}, "ENT1 [3]": {"target": "T1, ENT1 (Homo sapiens, UniProt Q99808)", "T1 sequence (Q99808 1-456)": "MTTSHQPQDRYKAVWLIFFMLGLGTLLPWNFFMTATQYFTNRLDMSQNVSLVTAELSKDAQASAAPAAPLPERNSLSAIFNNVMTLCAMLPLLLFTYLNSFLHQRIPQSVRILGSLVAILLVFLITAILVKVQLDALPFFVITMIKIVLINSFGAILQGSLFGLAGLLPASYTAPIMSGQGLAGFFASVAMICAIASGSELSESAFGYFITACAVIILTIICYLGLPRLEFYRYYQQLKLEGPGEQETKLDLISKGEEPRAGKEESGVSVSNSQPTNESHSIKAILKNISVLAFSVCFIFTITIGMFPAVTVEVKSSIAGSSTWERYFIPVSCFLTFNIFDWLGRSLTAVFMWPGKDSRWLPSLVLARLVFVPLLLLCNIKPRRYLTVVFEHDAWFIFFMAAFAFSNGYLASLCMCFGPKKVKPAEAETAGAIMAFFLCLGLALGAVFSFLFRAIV", "experiment": "Effect of ENT1 competitive inhibitors on MTX formulation cytotoxicity (MTT)", "settings": "then 20 μg MTX-equivalent/mL for 48 h; for effect of pre-treatment on toxicity of Cy-Lipo@MTX to JEG-3 cells: inhibitor 0.2-5.0 μM for 2 h", "experimental": "To investigate the effect of ENT1 on MTX formulations induced cytotoxicity, 2′-deoxycytidine and gemcitabine, as competitive inhibitors of ENT1, were cultured with adherent JEG-3 cells for 2 h. Next, the medium was removed, and the fresh medium containing MTX formulations (20 μg MTX-equivalent/mL) was added to the plate. The cells were incubated for another 48 h. MTT reagent was added as previously described, and absorbance was assessed via microplate reader."}, "ENT1 [4]": {"target": "T1, ENT1", "experiment": "Competitive inhibition of liposome uptake by ENT1 substrates", "assay_type": "cell-based", "set-up": "endogenous in cells; host or cells: JEG-3 (human choriocarcinoma cells)", "settings": "pre-treatment 2 h, 0.2-5.0 μM, then liposomes 4 h", "experimental": "Briefly, different concentration (0.2–5.0 μM) of 2′-deoxycytidine or gemcitabine was cultured with the adherent JEG-3 cells for 2 h. Then, the medium was removed, and the fresh medium containing Dox-labeled liposomes was added to the plate. The cells were incubated for another 4 h. Subsequent steps were the same as those in uptake assay."}}, "data": [{"smiles": "Nc1ccn([C@@H]2O[C@H](CO)[C@@H](O)[C@@H]2O)c(=O)n1", "note": "[Cy, cytosine β-d-arabinofuranoside]", "values": [{"measurement": "amount of Cy taken up by JEG-3 cells", "setting": "JEG-3 cells [1]", "value": "significantly higher than that taken up by Pricell-0051, MCF-7, and HepG2 cells"}]}, {"smiles": "O=c1c(O)c(-c2ccc(O)c(O)c2)oc2cc(O)cc(O)c12", "note": "[Quercetin, quercetin]", "values": [{"measurement": "effect of endocytosis inhibitor on uptake of Dox-labeled Cy-Lipo", "setting": "JEG-3 cells [2]", "value": "a certain inhibitory effect"}]}, {"smiles": "CN(C)CCCN1c2ccccc2Sc2ccc(Cl)cc21", "note": "[chlorpromazine]", "values": [{"measurement": "effect of endocytosis inhibitor on uptake of Dox-labeled Cy-Lipo", "setting": "JEG-3 cells [2]", "value": "next most substantial inhibition"}]}, {"smiles": "COc1cc2c(c(OC)c1OC)-c1ccc(OC)c(=O)cc1[C@@H](NC(C)=O)CC2", "note": "[colchicine]", "values": [{"measurement": "effect of endocytosis inhibitor on uptake of Dox-labeled Cy-Lipo", "setting": "JEG-3 cells [2]", "value": "reduced effect"}]}, {"smiles": "Cl.Nc1ccn([C@H]2C[C@H](O)[C@@H](CO)O2)c(=O)n1", "note": "[deoxycytidine, 2′-deoxycytidine hydrochloride]", "values": [{"measurement": "effect of pre-treatment on toxicity of Cy-Lipo@MTX to JEG-3 cells", "setting": "ENT1 [3]", "value": "significantly reduced the toxicity of Cy-Lipo@MTX to JEG-3 cells"}, {"measurement": "effect on uptake of Dox-labeled Cy-Lipo by JEG-3 cells", "setting": "ENT1 [4]", "value": "significantly reduce the uptake of Dox-labeled Cy-Lipo by JEG-3 cells in a concentration-dependent manner"}, {"measurement": "effect on uptake of Dox-labeled Lipo by JEG-3 cells", "setting": "ENT1 [4]", "value": "less of effect"}]}, {"smiles": "Nc1ccn([C@@H]2O[C@H](CO)[C@@H](O)C2(F)F)c(=O)n1", "note": "[gemcitabine]", "values": [{"measurement": "effect of pre-treatment on toxicity of Cy-Lipo@MTX to JEG-3 cells", "setting": "ENT1 [3]", "value": "significantly reduced the toxicity of Cy-Lipo@MTX to JEG-3 cells"}, {"measurement": "effect of pre-treatment on cytotoxicity of free MTX or Lipo@MTX in JEG-3 cells", "setting": "ENT1 [3]; inhibitor for 2 h", "value": "little effect"}, {"measurement": "effect on uptake of Dox-labeled Cy-Lipo by JEG-3 cells", "setting": "ENT1 [4]", "value": "significantly influenced the uptake of Dox-labeled Cy-Lipo at concentrations of 1.0 μM and 5.0 μM"}]}, {"smiles": "COc1ccc2c(c1)c(CC(=O)O)c(C)n2C(=O)c1ccc(Cl)cc1", "note": "[indomethacin]", "values": [{"measurement": "effect of endocytosis inhibitor on uptake of Dox-labeled Cy-Lipo", "setting": "JEG-3 cells [2]", "value": "impacted the uptake of Dox-labeled Cy-Lipo to the greatest extent"}]}]}
